The source of these data is US11203571B2, “Sulfonamides as modulators of sodium channels” (VERTEX PHARMACEUTICALS INCORPORATED, priority 2013, dated 2021).

One data set deals with human Nav1.8 (Homo sapiens (Human), UniProt Q9Y5Y9). Kind of data set: E-VIPR optical membrane potential assay with electrical stimulation. Conditions: HEK cells expressing human Nav1.8. The format is cell-based. From the text: E-VIPR Optical Membrane Potential Assay Method with Electrical Stimulation
Sodium channels are voltage-dependent proteins that can be activated by inducing membrane voltage changes by applying electric fields. The electrical stimulation instrument and methods of use are described in Ion Channel Assay Methods PCT/US01/21652, herein incorporated by reference and are referred to as E-VIPR. The instrument comprises a microtiter plate handler, an optical system for exciting the coumarin dye while simultaneously recording the coumarin and oxonol emissions, a waveform generator, a current- or voltage-controlled amplifier, and a device for inserting electrodes in well. Under integrated computer control, this instrument passes user-programmed electrical stimulus protocols to cells within the wells of the microtiter plate.
24 hours before the assay on E-VIPR, HEK cells expressing human Nav1.8 were seeded in 384-well poly-lysine coated plates at 15,000-20,000 cells per well. HEK cells were grown in media (exact composition is specific to each cell type and NaV subtype) supplemented with 10% FBS (Fetal Bovine Serum, qualified; GibcoBRL #16140-071) and 1% Pen-Strep (Penicillin-Streptomycin; GibcoBRL #15140-122). Cells were grown in vented cap flasks, in 90% humidity and 5% CO2.
• 100 mg/mL Pluronic F-127 (Sigma #P2443), in dry DMSO • Compound Plates: 384-well round bottom plate, e.g. Corning 384-well Polypropylene Round Bottom #3656 • Cell Plates: 384-well tissue culture treated plate, e.g. Greiner #781091-1B • 10 mM DiSBAC6(3) (Aurora #00-100-010) in dry DMSO • 10 mM CC2-DMPE (Aurora #00-100-008) in dry DMSO • 200 mM ABSC1 in H20
Bath1 buffer: Glucose 10 mM (1.8 g/L), Magnesium Chloride (Anhydrous), 1 mM (0.095 g/L), Calcium Chloride, 2 mM (0.222 g/L), HEPES 10 mM (2.38 g/L), Potassium Chloride, 4.5 mM (0.335 g/L), Sodium Chloride 160 mM (9.35 g/L).
Hexyl Dye Solution: Bath1 Buffer+0.5% β-cyclodextrin (make this prior to use, Sigma #C4767), 8 μM CC2-DMPE+2.5 μM DiSBAC6(3). To make the solution Added volume of 10% Pluronic F127 stock equal to volumes of CC2-DMPE+DiSBAC6(3). The order of preparation was first mix Pluronic and CC2-DMPE, then added DiSBAC6(3) while vortexing, then added Bath1+β-Cyclodextrin.
1) Pre-spotted compounds (in neat DMSO) into compound plates. Vehicle control (neat DMSO), the positive control (20 mM DMSO stock tetracaine, 125 μM final in assay) and test compounds were added to each well at 160× desired final concentration in neat DMSO. Final compound plate volume was 80 μL (80-fold intermediate dilution from 1 μL DMSO spot; 160-fold final dilution after transfer to cell plate). Final DMSO concentration for all wells in assay was 0.625%.
2) Prepared Hexyl Dye Solution.
3) Prepared cell plates. On the day of the assay, medium was aspirated and cells were washed three times with 100 μL of Bath1 Solution, maintaining 25 μL residual volume in each well.
4) Dispensed 25 μL per well of Hexyl Dye Solution into cell plates. Incubated for 20-35 minutes at room temp or ambient conditions.
5) Dispensed 80 μL per well of Bath1 into compound plates. Acid Yellow-17 (1 mM) was added and Potassium Chloride was altered from 4.5 to 20 mM depending on the NaV subtype and assay sensitivity.
6) Washed cell plates three times with 100 μL per well of Bath1, leaving 25 μL of residual volume. Then transferred 25 uL per well from Compound Plates to Cell Plates. Incubated for 20-35 minutes at room temp/ambient condition.
7) Read Plate on E-VIPR. Used the current-controlled amplifier to deliver stimulation wave pulses for 10 seconds and a scan rate of 200 Hz. A pre-stimulus recording was performed for 0.5 seconds to obtain the un-stimulated intensities baseline. The stimulatory waveform was followed by 0.5 seconds of post-stimulation recording to examine the relaxation to the resting state.
Data was analyzed and reported as normalized ratios of emission intensities measured in the 460 nm and 580 nm channels. […]

The nature of data set [1]: Human liver microsome assay. Type of data set: in vitro ADME. Particulars: 1 uM substrate, 0.5 mg/mL liver microsome, 2 mM NADPH, 37° C., referenced against time zero control. The protocol: Human Liver Microsome Assay Protocol
Liver microsomal stability data were generated as follows. Substrates were incubated at 37° C. and shaken for 30 minutes in a phosphate buffered solution with human liver microsomes and the cofactor NADPH. A time zero control was similarly prepared, however with NADPH excluded. The final incubation concentrations were 1 uM substrate (0.2% DMSO), 0.5 mg/mL liver microsome, 2 mM NADPH, and 0.1 M phosphate. Reactions were quenched and proteins precipitated with the addition of 2 volume equivalents of ice cold acetonitrile containing an internal standard. Following a centrifugation step, aliquots from the quenched incubations were further diluted with 4 volume equivalents of a 50% aqueous methanol solution and then subjected to LC/MS/MS analysis for quantitation of parent substrate. Microsome stability values were calculated as the percent of substrate remaining after 30 minutes referenced against the time zero control.

human Nav1.8, sequence (Q9Y5Y9 whole entry): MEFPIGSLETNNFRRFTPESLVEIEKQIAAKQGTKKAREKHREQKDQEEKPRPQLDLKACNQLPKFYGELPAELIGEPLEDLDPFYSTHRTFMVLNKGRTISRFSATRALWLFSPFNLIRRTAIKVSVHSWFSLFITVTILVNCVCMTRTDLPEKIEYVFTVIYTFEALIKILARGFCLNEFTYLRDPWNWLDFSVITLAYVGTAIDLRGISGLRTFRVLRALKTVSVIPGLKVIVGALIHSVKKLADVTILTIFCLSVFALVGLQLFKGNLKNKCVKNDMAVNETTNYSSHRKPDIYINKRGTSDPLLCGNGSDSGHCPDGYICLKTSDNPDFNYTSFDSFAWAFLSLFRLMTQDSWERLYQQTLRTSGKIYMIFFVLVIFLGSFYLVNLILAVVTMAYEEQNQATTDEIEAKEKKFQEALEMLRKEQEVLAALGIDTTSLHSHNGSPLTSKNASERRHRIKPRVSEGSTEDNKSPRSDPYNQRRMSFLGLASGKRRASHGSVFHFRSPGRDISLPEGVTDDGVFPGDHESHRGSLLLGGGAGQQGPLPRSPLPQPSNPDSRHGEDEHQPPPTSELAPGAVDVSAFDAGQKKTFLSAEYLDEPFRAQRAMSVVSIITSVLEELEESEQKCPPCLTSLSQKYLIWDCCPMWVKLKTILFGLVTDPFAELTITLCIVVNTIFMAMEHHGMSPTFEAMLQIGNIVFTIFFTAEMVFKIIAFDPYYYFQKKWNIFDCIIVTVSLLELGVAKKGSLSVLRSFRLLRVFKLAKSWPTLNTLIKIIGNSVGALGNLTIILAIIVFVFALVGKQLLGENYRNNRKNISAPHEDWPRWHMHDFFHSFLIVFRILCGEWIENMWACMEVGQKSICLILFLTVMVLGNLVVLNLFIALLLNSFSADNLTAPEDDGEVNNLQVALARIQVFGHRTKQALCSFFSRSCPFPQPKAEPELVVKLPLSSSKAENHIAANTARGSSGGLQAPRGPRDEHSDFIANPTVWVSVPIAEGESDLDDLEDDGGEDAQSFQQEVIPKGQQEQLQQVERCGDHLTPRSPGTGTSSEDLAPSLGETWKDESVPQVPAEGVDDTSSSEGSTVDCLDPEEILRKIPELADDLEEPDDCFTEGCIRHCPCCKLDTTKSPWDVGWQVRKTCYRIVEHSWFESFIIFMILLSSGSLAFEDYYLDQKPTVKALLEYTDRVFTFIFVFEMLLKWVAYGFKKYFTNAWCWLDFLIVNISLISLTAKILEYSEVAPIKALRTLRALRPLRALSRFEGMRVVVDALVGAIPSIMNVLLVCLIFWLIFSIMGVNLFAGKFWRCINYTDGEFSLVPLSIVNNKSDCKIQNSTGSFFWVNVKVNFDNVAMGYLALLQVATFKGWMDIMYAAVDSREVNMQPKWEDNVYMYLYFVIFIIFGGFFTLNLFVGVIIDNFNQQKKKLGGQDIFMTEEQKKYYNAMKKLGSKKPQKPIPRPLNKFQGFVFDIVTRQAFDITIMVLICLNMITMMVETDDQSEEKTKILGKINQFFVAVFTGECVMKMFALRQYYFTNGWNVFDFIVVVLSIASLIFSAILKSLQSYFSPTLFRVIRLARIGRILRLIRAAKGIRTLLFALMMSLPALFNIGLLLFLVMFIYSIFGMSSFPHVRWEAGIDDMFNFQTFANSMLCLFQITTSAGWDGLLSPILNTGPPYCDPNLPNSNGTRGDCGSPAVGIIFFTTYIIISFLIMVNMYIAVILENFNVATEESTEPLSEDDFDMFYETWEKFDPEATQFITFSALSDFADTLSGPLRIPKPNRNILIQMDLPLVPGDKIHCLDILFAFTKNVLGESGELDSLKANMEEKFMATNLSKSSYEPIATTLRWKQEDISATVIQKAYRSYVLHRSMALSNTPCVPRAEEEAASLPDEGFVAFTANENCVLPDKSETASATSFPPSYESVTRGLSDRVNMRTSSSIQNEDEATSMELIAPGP

Turning to `NS(=O)(=O)c1cccc(NC(=O)c2cc(C(F)(F)F)ccc2Oc2ccc(OC(F)F)cc2)c1` [Compound 41, 2-(4-(difluoromethoxy)phenoxy)-N-(3-sulfamoylphenyl)-5-(trifluoromethyl)benzamide], the IC50 (commonly the midpoint of a concentration-inhibition curve) against human Nav1.8 came to 22 nM. Also, the “HLM: percent unchanged after 30 min” value in data set [1] is recorded as 95%.

In turn, `COc1cc(Cl)ccc1Oc1cc(C(F)(F)F)ccc1C(=O)Nc1cccc(S(N)(=O)=O)c1` [Compound 42, 2-(4-chloro-2-methoxyphenoxy)-N-(3-sulfamoylphenyl)-4-(trifluoromethyl)benzamide] showed an IC50 on human Nav1.8 of 10 nM. The “HLM: percent unchanged after 30 min” value in data set [1] is recorded as 84%.

Take `COc1ccc(Oc2cc(C(F)(F)F)ccc2C(=O)Nc2cccc(S(N)(=O)=O)c2)cc1F` [Compound 43, 2-(3-fluoro-4-methoxyphenoxy)-N-(3-sulfamoylphenyl)-4-(trifluoromethyl)benzamide]: the IC50 against human Nav1.8 stood at 21 nM. For the same molecule, the “HLM: percent unchanged after 30 min” value in data set [1] amounted to 90%.

`COc1ccccc1Oc1cc(C(F)(F)F)ccc1C(=O)Nc1cccc(S(N)(=O)=O)c1` [Compound 44, 2-(2-methoxyphenoxy)-N-(3-sulfamoylphenyl)-4-(trifluoromethyl)benzamide] had an IC50 at human Nav1.8 of 20 nM. For the same molecule, in data set [1], the “HLM: percent unchanged after 30 min” value stood at 79%.

Turning to `CCOc1ccc(Oc2cc(C(F)(F)F)ccc2C(=O)Nc2cccc(S(N)(=O)=O)c2)cc1` [Compound 45, 2-(4-ethoxyphenoxy)-N-(3-sulfamoylphenyl)-4-(trifluoromethyl)benzamide], the IC50 on human Nav1.8 came to 21 nM. Besides, the “HLM: percent unchanged after 30 min” value in data set [1] worked out at 72%.

`CCCOc1ccccc1Oc1cc(C(F)(F)F)ccc1C(=O)Nc1cccc(S(N)(=O)=O)c1` [Compound 46, 2-(2-propoxyphenoxy)-N-(3-sulfamoylphenyl)-4-(trifluoromethyl)benzamide]: at human Nav1.8, the IC50 was 14 nM. Moreover, the “HLM: percent unchanged after 30 min” value in data set [1] is on record as 67%.

Molecule `Cc1ccccc1Oc1cc(C(F)(F)F)ccc1C(=O)Nc1cccc(S(N)(=O)=O)c1` [Compound 47, N-(3-sulfamoylphenyl)-2-(o-tolyloxy)-4-(trifluoromethyl)benzamide] showed an IC50 at human Nav1.8 of 14 nM. Also, in data set [1], the “HLM: percent unchanged after 30 min” value was 100%.

In turn, `COc1ccc(Oc2cc(C(F)(F)F)ccc2C(=O)Nc2cccc(S(N)(=O)=O)c2)c(Cl)c1` [Compound 48, 2-(2-chloro-4-methoxyphenoxy)-N-(3-sulfamoylphenyl)-4-(trifluoromethyl)benzamide] displayed an IC50 at human Nav1.8 of 10 nM. In addition, the “HLM: percent unchanged after 30 min” value in data set [1] is 68%.

On to `COc1ccc(Oc2cc(C(F)(F)F)ccc2C(=O)Nc2cccc(S(N)(=O)=O)c2)c(C)c1` [Compound 49, 2-(4-methoxy-2-methylphenoxy)-N-(3-sulfamoylphenyl)-4-(trifluoromethyl)benzamide], for which, on human Nav1.8, half-maximal inhibition (IC50) required 12 nM. For the same molecule, the “HLM: percent unchanged after 30 min” value in data set [1] is reported as 57%.

The molecule `COc1ccc(Oc2cc(C(F)(F)F)ccc2C(=O)Nc2cccc(S(N)(=O)=O)c2)c(OC)c1` [Compound 50, 2-(2,4-dimethoxyphenoxy)-N-(3-sulfamoylphenyl)-4-(trifluoromethyl)benzamide] showed an IC50 at human Nav1.8 of 8 nM. The “HLM: percent unchanged after 30 min” value in data set [1] came out at 72%.

In turn, `NS(=O)(=O)c1cccc(NC(=O)c2ccc(C(F)(F)F)cc2Oc2ccc(OC(F)(F)F)cc2)c1` [Compound 51, N-(3-sulfamoylphenyl)-2-(4-(trifluoromethoxy)phenoxy)-4-(trifluoromethyl)benzamide] registered an IC50 on human Nav1.8 of 14 nM. In addition, the “HLM: percent unchanged after 30 min” value in data set [1] was 89%.

In the case of `COc1c(F)cccc1Oc1cc(C(F)(F)F)ccc1C(=O)Nc1cccc(S(N)(=O)=O)c1` [Compound 52, 2-(3-fluoro-2-methoxyphenoxy)-N-(3-sulfamoylphenyl)-4-(trifluoromethyl)benzamide], on human Nav1.8, the IC50 turned out to be 11 nM. In addition, the “HLM: percent unchanged after 30 min” value in data set [1] came to 81%.

In the case of `CC(C)Oc1ccc(Oc2cc(C(F)(F)F)ccc2C(=O)Nc2cccc(S(N)(=O)=O)c2)cc1` [Compound 53, 2-(4-isopropoxyphenoxy)-N-(3-sulfamoylphenyl)-4-(trifluoromethyl)benzamide], at human Nav1.8, the IC50 worked out at 26 nM. In data set [1], the “HLM: percent unchanged after 30 min” value was found to be 71%.

`COc1cc(F)ccc1Oc1cc(OC(F)(F)F)ccc1C(=O)Nc1cccc(S(N)(=O)=O)c1` [Compound 54, 2-(4-fluoro-2-methoxyphenoxy)-N-(3-sulfamoylphenyl)-4-(trifluoromethoxy)benzamide] yielded an IC50 at human Nav1.8 of 5 nM. Besides, in data set [1], the “HLM: percent unchanged after 30 min” value was 96%.

`NS(=O)(=O)c1cccc(NC(=O)c2ccc(OC(F)(F)F)cc2Oc2ccc(F)cc2)c1` [Compound 55, 2-(4-fluorophenoxy)-N-(3-sulfamoylphenyl)-4-(trifluoromethoxy)benzamide]: on human Nav1.8, the IC50 came out at 9 nM. In data set [1], the “HLM: percent unchanged after 30 min” value is listed as 95%.

As for `NS(=O)(=O)c1cccc(NC(=O)c2ccc(OC(F)(F)F)cc2Oc2ccc(F)cc2Cl)c1` [Compound 56, 2-(2-chloro-4-fluorophenoxy)-N-(3-sulfamoylphenyl)-4-(trifluoromethoxy)benzamide], the half-maximal inhibitory concentration (IC50) on human Nav1.8 is 4 nM. In data set [1], the “HLM: percent unchanged after 30 min” value came out at 102%.

With `COc1ccccc1Oc1cccc(C(F)(F)F)c1C(=O)Nc1cccc(S(N)(=O)=O)c1` [Compound 57, 2-(2-methoxyphenoxy)-N-(3-sulfamoylphenyl)-6-(trifluoromethyl)benzamide], the IC50 on human Nav1.8 turned out to be 27 nM. In addition, the “HLM: percent unchanged after 30 min” value in data set [1] is on record as 78%.

`Cc1cc(Cl)ccc1Oc1cccc(C(F)(F)F)c1C(=O)Nc1cccc(S(N)(=O)=O)c1` [Compound 58, 2-(4-chloro-2-methylphenoxy)-N-(3-sulfamoylphenyl)-6-(trifluoromethyl)benzamide] gave an IC50 at human Nav1.8 of 6 nM. Besides, the “HLM: percent unchanged after 30 min” value in data set [1] worked out at 107%.

On human Nav1.8, `Cc1c(F)cccc1Oc1cccc(C(F)(F)F)c1C(=O)Nc1cccc(S(N)(=O)=O)c1` [Compound 59, 2-(3-fluoro-2-methylphenoxy)-N-(3-sulfamoylphenyl)-6-(trifluoromethyl)benzamide] returned an IC50 of 14 nM. The “HLM: percent unchanged after 30 min” value in data set [1] came out at 66%.

As to `NS(=O)(=O)c1cccc(NC(=O)c2c(Oc3ccc(OC(F)(F)F)cc3)cccc2C(F)(F)F)c1` [Compound 60, N-(3-sulfamoylphenyl)-2-(4-(trifluoromethoxy)phenoxy)-6-(trifluoromethyl)benzamide], inhibition against human Nav1.8 was half-maximal at 9 nM (IC50). Moreover, the “HLM: percent unchanged after 30 min” value in data set [1] is given as 92%.

Regarding `COc1ccc(Oc2cccc(C(F)(F)F)c2C(=O)Nc2cccc(S(N)(=O)=O)c2)cc1F` [Compound 61, 2-(3-fluoro-4-methoxyphenoxy)-N-(3-sulfamoylphenyl)-6-(trifluoromethyl)benzamide], it took 28 nM to reach half-maximal inhibition against human Nav1.8 (IC50). Also, the “HLM: percent unchanged after 30 min” value in data set [1] is 68%.
